In patent publication US11572373B2, “Maytansinoid-based drug delivery systems” (LADRX CORPORATION, priority 2017, dated 2023):

Test system: human tumor xenograft models
Assay: Antitumor activity in human tumor xenograft mice models
Assay type: in vivo
Settings: five human tumor xenograft models in nude mice, i.v. on day 1, 8, 15, and 22
Source text: This included starting tumor volumes in the range of approximately 80-110 mm^3 but also initial starting tumor volumes of up to approximately 400 mm^3. Furthermore, in most cases therapy with albumin-binding maytansinoids 30 and 31 induced long-term remissions and a decrease in Relative Tumor Volume (RTV). […] Experimental procedure and the results in the tumor-bearing mice models are described in detail in Examples 11-19 and FIGS. 3-16.
Female immunodeficient NMRI nude mice, from Charles River, received unilateral tumor implants subcutaneously in the left flank while under isoflurane anesthesia with human cancer tumors until tumors were palpable and had reached a volume of 80-200 mm^3 (unless otherwise stated).
Animals were kept in cages, the temperature inside the cages maintained at 25±1° C. with a relative humidity of 45-65% and an air change rate in the cage of 60-fold per hour. They were kept under a 14 h light: 10 h dark, artificial light cycle. The animals were fed with autoclaved Teklad Global 19% Protein Extruded Diet (T.2019S.12) from Envigo RMS SARL and had access to sterile filtered and acidified (pH 2.5) tap water, which was changed twice weekly. Feed and water were provided ad libitum. […] Animals were routinely monitored twice daily on working days and daily on Saturdays and Sundays. […] Relative body weights (RBW) of individual animals were calculated by dividing the individual absolute body weight on day X (BWx) by the individual body weight on the day of randomization multiplied by 100%. The tumor volume was determined by a two-dimensional measurement with calipers on the day of randomization (day 0) and then twice weekly. Tumor volumes were calculated according to the following equation: Tumor Vol [mm^3]=1 [mm]×w^2 [mm^2]×0.5, where “1” is the length and “w” is width of the tumor. The relative volume of an individual tumor on day X (RTVx) was calculated by dividing the absolute individual tumor volume [mm^3] of the respective tumor on day X (Tx) by the absolute individual tumor volume of the same tumor on the day of randomization multiplied by 100%. […]

For `COc1cc2cc(c1Cl)N(C)C(=O)C[C@H](OC(=O)COc1cccc(/C(C)=N/NC(=O)c3ccc(NC(=O)CCCCCN4C(=O)C=CC4=O)cc3S(=O)(=O)O)c1)[C@]1(C)O[C@H]1[C@H](C)[C@@H]1C[C@@](O)(NC(=O)O1)[C@H](OC)/C=C/C=C(\C)C2` [Compound 31], which antitumor activity is on record?
The antitumor activity was “partial and complete tumor regressions”.
